Laboratory results taken from US20100168102A9, “Amide Derivatives as Kinase Inhibitors” (Devgen NV, priority 2005, published 2010).

What was measured:
PKC epsilon = target: T1, PKC epsilon (Homo sapiens, UniProt Q02156); assay: Biochemical assay for PKC epsilon (fluorescence polarization, Protein Kinase C Assay Kit, Red); settings: compounds of Formula XIV, Table 3; read-out: IC50 μM PKCε
T1 construct: purchased Invitrogen P2282
T1 sequence (Q02156 1-737): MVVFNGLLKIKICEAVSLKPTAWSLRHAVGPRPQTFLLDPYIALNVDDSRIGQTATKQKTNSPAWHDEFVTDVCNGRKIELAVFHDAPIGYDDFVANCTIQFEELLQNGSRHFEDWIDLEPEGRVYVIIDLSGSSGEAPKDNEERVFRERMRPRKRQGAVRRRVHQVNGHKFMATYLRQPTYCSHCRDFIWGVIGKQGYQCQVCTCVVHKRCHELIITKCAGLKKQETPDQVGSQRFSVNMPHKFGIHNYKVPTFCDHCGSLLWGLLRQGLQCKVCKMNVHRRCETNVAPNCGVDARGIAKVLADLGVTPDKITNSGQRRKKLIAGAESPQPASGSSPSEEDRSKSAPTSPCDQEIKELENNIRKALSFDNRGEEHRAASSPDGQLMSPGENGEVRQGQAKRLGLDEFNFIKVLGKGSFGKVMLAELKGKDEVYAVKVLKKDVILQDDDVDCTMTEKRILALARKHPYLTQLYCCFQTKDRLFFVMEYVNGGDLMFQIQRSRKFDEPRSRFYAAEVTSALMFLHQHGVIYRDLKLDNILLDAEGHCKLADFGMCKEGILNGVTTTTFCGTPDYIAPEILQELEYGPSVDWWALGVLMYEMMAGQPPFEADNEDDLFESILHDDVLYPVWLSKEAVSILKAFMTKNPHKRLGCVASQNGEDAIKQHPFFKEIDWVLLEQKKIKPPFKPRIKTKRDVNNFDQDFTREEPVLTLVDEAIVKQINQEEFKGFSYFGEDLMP
Procedure, shortened: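 PKC epsilon at 10 ng/ml final was preincubated 30 min at room temperature with compound in HEPES pH 7.4 with DTT and Triton X-100. ATP/protein substrate was then added in buffer with MgCl2 and CaCl2 for 80 min. The reaction was stopped with EDTA, phosphorylation was detected by fluorescence polarization with rhodamine tracer and anti-phosphoserine antibody, and IC50 values came from curve fits.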

human ROCKα/ROCKII mix = target: T2, human ROCKα/ROCKII mix (Homo sapiens, UniProt O75116); assay: Biochemical assay for ROCK (fluorescence polarization, ROCK IMAP Kit); settings: compounds of Formula XIV, Table 3
T2 construct: purchased Upstate Biotechnology 14-451
T2 sequence (O75116 11-552 limits assumed): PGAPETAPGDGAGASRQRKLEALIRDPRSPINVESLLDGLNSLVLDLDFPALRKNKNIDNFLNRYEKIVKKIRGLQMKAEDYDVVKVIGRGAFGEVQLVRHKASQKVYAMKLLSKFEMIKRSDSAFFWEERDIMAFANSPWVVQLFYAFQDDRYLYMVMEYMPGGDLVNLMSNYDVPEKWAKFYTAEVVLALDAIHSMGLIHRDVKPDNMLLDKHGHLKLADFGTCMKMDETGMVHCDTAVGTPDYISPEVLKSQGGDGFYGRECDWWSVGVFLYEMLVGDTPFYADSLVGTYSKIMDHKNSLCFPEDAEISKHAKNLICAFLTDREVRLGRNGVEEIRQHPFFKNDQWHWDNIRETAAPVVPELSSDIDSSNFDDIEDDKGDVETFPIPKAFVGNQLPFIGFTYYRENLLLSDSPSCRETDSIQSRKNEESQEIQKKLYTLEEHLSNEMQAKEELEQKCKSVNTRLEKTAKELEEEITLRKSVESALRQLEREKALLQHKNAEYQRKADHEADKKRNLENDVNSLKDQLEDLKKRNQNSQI

| SMILES | IC50 (PKC epsilon) [µM] | IC50 (human ROCKα/ROCKII mix) [µM] |
| --- | --- | --- |
| NC(CC(=O)NCc1cccc(Cl)c1)c1ccc(C(=O)Nc2ccncc2)cc1 (stereo not shown) [Compound 248, 4-[1-Amino-2-(3-chloro-benzylcarbamoyl)-ethyl]-N-pyridin-4-yl-benzamide] | 0.05 to 0.5 | 0.05 to 0.5 |
| NC(CC(=O)NCc1cc(Cl)cc(Cl)c1)c1ccc(C(=O)Nc2ccncc2)cc1 (stereo not shown) [Compound 250, 4-[1-Amino-2-(3,5-dichloro-benzylcarbamoyl)-ethyl]-N-pyridin-4-yl-benzamide] | 0.5 to 5 | 0.05 to 0.5 |
| NC(CC(=O)NCc1ccc(Cl)cc1Cl)c1ccc(C(=O)Nc2ccncc2)cc1 (stereo not shown) [Compound 252, 4-[1-Amino-2-(2,4-dichloro-benzylcarbamoyl)-ethyl]-N-pyridin-4-yl-benzamide] | 0.5 to 5 | 0.05 to 0.5 |
| NC(CC(=O)NCc1ccccc1F)c1ccc(C(=O)Nc2ccncc2)cc1 (stereo not shown) [Compound 256, 4-[1-Amino-2-(2-fluoro-benzylcarbamoyl)-ethyl]-N-pyridin-4-yl-benzamide] | 0.5 to 5 | 0.05 to 0.5 |
| NC(CC(=O)NCc1cccc(F)c1)c1ccc(C(=O)Nc2ccncc2)cc1 (stereo not shown) [Compound 257, 4-[1-Amino-2-(3-fluoro-benzylcarbamoyl)-ethyl]-N-pyridin-4-yl-benzamide] | 0.5 to 5 | 0.05 to 0.5 |
| NC(CC(=O)NCc1ccccc1Br)c1ccc(C(=O)Nc2ccncc2)cc1 (stereo not shown) [Compound 259, 4-[1-Amino-2-(2-bromo-benzylcarbamoyl)-ethyl]-N-pyridin-4-yl-benzamide] | 0.5 to 5 | 0.05 to 0.5 |
| NC(CC(=O)NCc1cccc(Br)c1)c1ccc(C(=O)Nc2ccncc2)cc1 (stereo not shown) [Compound 260, 4-[1-Amino-2-(3-bromo-benzylcarbamoyl)-ethyl]-N-pyridin-4-yl-benzamide] | 0.5 to 5 | 0.05 to 0.5 |
| NC(CC(=O)NCc1ccc(Br)cc1F)c1ccc(C(=O)Nc2ccncc2)cc1 (stereo not shown) [Compound 262, 4-[1-Amino-2-(4-bromo-2-fluoro-benzylcarbamoyl)-ethyl]-N-pyridin-4-yl-benzamide] | 0.5 to 5 | 0.05 to 0.5 |
| NC(CC(=O)NCc1ccccc1C(F)(F)F)c1ccc(C(=O)Nc2ccncc2)cc1 (stereo not shown) [Compound 263, 4-[1-Amino-2-(2-trifluoromethyl-benzylcarbamoyl)-ethyl]-N-pyridin-4-yl-benzamide] | 0.5 to 5 | 0.05 to 0.5 |
| NC(CC(=O)NCc1cccc(C(F)(F)F)c1)c1ccc(C(=O)Nc2ccncc2)cc1 (stereo not shown) [Compound 264, 4-[1-Amino-2-(3-trifluoromethyl-benzylcarbamoyl)-ethyl]-N-pyridin-4-yl-benzamide] | 0.5 to 5 | 0.05 to 0.5 |
| NC(CC(=O)NCc1ccc(C(F)(F)F)cc1)c1ccc(C(=O)Nc2ccncc2)cc1 (stereo not shown) [Compound 265, 4-[1-Amino-2-(4-trifluoromethyl-benzylcarbamoyl)-ethyl]-N-pyridin-4-yl-benzamide] | 0.5 to 5 | 0.05 to 0.5 |
| NC(CC(=O)NCc1ccc(F)c(C(F)(F)F)c1)c1ccc(C(=O)Nc2ccncc2)cc1 (stereo not shown) [Compound 266, 4-[1-Amino-2-(4-fluoro-3-trifluoromethyl-benzylcarbamoyl)-ethyl]-N-pyridin-4-yl-benzamide] | 0.5 to 5 | 0.05 to 0.5 |
| NC(CC(=O)NCc1ccc(C(F)(F)F)c(F)c1)c1ccc(C(=O)Nc2ccncc2)cc1 (stereo not shown) [Compound 267, 4-[1-Amino-2-(3-fluoro-4-trifluoromethyl-benzylcarbamoyl)-ethyl]-N-pyridin-4-yl-benzamide] | 0.5 to 5 | 0.05 to 0.5 |
| NC(CC(=O)NCc1cc(C(F)(F)F)cc(C(F)(F)F)c1)c1ccc(C(=O)Nc2ccncc2)cc1 (stereo not shown) [Compound 268, 4-[1-Amino-2-(3,5-bis-trifluoromethyl-benzylcarbamoyl)-ethyl]-N-pyridin-4-yl-benzamide] | 0.5 to 5 | 0.05 to 0.5 |
| NC(CC(=O)NCc1ccccc1OC(F)(F)F)c1ccc(C(=O)Nc2ccncc2)cc1 (stereo not shown) [Compound 269, 4-[1-Amino-2-(2-trifluoromethoxy-benzylcarbamoyl)-ethyl]-N-pyridin-4-yl-benzamide] | 0.5 to 5 | 0.05 to 0.5 |
| NC(CC(=O)NCc1cccc(OC(F)(F)F)c1)c1ccc(C(=O)Nc2ccncc2)cc1 (stereo not shown) [Compound 270, 4-[1-Amino-2-(3-trifluoromethoxy-benzylcarbamoyl)-ethyl]-N-pyridin-4-yl-benzamide] | 0.5 to 5 | 0.05 to 0.5 |
| NC(CC(=O)NCc1cccc([N+](=O)[O-])c1)c1ccc(C(=O)Nc2ccncc2)cc1 (stereo not shown) [Compound 272, 4-[1-Amino-2-(3-nitro-benzylcarbamoyl)-ethyl]-N-pyridin-4-yl-benzamide] | 0.5 to 5 | 0.05 to 0.5 |
| NC(CC(=O)NCc1ccc([N+](=O)[O-])cc1)c1ccc(C(=O)Nc2ccncc2)cc1 (stereo not shown) [Compound 273, 4-[1-Amino-2-(4-nitro-benzylcarbamoyl)-ethyl]-N-pyridin-4-yl-benzamide] | 0.5 to 5 | 0.05 to 0.5 |
| NC(CC(=O)NC1Cc2ccccc2C1)c1ccc(C(=O)Nc2ccncc2)cc1 (stereo not shown) [Compound 280, 4-[1-amino-2-(indan-2-ylcarbamoyl)-ethyl]-N-pyridin-4-yl-benzamide] | 0.5 to 5 | 0.05 to 0.5 |

Other lines, results leading:

| IC50 (PKC epsilon) [µM] | IC50 (human ROCKα/ROCKII mix) [µM] | SMILES |
| --- | --- | --- |
| 0.5 to 5 | 0.05 to 0.5 | COc1ccc(OC)c(CNC(=O)CC(N)c2ccc(C(=O)Nc3ccncc3)cc2)c1 (stereo not shown) [Compound 242, 4-[1-Amino-2-(2,5-dimethoxy-benzylcarbamoyl)-ethyl]-N-pyridin-4-yl-benzamide] |
| 0.5 to 5 | 0.05 to 0.5 | COc1cccc(OC)c1CNC(=O)CC(N)c1ccc(C(=O)Nc2ccncc2)cc1 (stereo not shown) [Compound 243, 4-[1-Amino-2-(2,6-dimethoxy-benzylcarbamoyl)-ethy]-N-pyridin-4-yl-benzamide] |
| 0.5 to 5 | 0.05 to 0.5 | COc1ccc(C(NC(=O)CC(N)c2ccc(C(=O)Nc3ccncc3)cc2)c2ccc(OC)cc2)cc1 (stereo not shown) [Compound 244, 4-(1-Amino-2-{[bis-(4-methoxy-phenyl)-methyl]-carbamoyl}-ethyl)-N-pyridin-4-yl-benzamide] |
| 0.5 to 5 | 0.05 to 0.5 | NC(CC(=O)NCc1ccccc1Cl)c1ccc(C(=O)Nc2ccncc2)cc1 (stereo not shown) [Compound 246, 4-[1-Amino-2-(2-chloro-benzylcarbamoyl)-ethyl]-N-pyridin-4-yl-benzamide] |
| 0.5 to 5 | 0.05 to 0.5 | Cc1cccc(Cl)c1CNC(=O)CC(N)c1ccc(C(=O)Nc2ccncc2)cc1 (stereo not shown) [Compound 247, 4-[1-Amino-2-(2-chloro-6-methyl-benzylcarbamoyl)-ethyl]-N-pyridin-4-yl-benzamide] |
| 0.5 to 5 | 0.05 to 0.5 | Cc1ccc(CNC(=O)CC(N)c2ccc(C(=O)Nc3ccncc3)cc2)cc1Cl (stereo not shown) [Compound 249, 4-[1-Amino-2-(3-chloro-4-methyl-benzylcarbamoyl)-ethyl]-N-pyridin-4-yl-benzamide] |
| 0.5 to 5 | 0.05 to 0.5 | NC(CC(=O)NCc1cc(Cl)ccc1Cl)c1ccc(C(=O)Nc2ccncc2)cc1 (stereo not shown) [Compound 251, 4-[1-Amino-2-(3,6-dichloro-benzylcarbamoyl)-ethyl]-N-pyridin-4-yl-benzamide] |
| 0.05 to 0.5 | 0.05 to 0.5 | NC(CC(=O)NCc1cccc(Cl)c1Cl)c1ccc(C(=O)Nc2ccncc2)cc1 (stereo not shown) [Compound 253, 4-[1-Amino-2-(2,3-dichloro-benzylcarbamoyl)-ethyl]-N-pyridin-4-yl-benzamide] |
| 0.5 to 5 | 0.05 to 0.5 | NC(CC(=O)NC(c1ccccc1)c1ccc(Cl)cc1)c1ccc(C(=O)Nc2ccncc2)cc1 (stereo not shown) [Compound 255, 4-(1-Amino-2-{[(4-chloro-phenyl)-phenyl-methyl]-carbamoyl}-ethyl)-N-pyridin-4-yl-benzamide] |
| 0.05 to 0.5 | 0.05 to 0.5 | NC(CC(=O)NCc1ccc(F)cc1)c1ccc(C(=O)Nc2ccncc2)cc1 (stereo not shown) [Compound 258, 4-[1-Amino-2-(4-fluoro-benzylcarbamoyl)-ethyl]-N-pyridin-4-yl-benzamide] |
| 0.5 to 5 | 0.05 to 0.5 | NC(CC(=O)NCc1ccc(F)cc1Cl)c1ccc(C(=O)Nc2ccncc2)cc1 (stereo not shown) [Compound 261, 4-[1-Amino-2-(2-chloro-4-fluoro-benzylcarbamoyl)-ethyl]-N-pyridin-4-yl-benzamide] |
| 0.5 to 5 | 0.05 to 0.5 | NC(CC(=O)NCc1ccc(OC(F)(F)F)cc1)c1ccc(C(=O)Nc2ccncc2)cc1 (stereo not shown) [Compound 271, 4-[1-Amino-2-(4-trifluoromethoxy-benzylcarbamoyl)-ethyl]-N-pyridin-4-yl-benzamide] |
| 0.5 to 5 | 0.05 to 0.5 | CS(=O)(=O)c1ccc(CNC(=O)CC(N)c2ccc(C(=O)Nc3ccncc3)cc2)cc1 (stereo not shown) [Compound 275, 4-[1-Amino-2-(4-methanesulfonyl-benzylcarbamoyl)-ethyl]-N-pyridin-4-yl-benzamide] |
